Data reported in patent US20080234130A1, “Compositions providing tolerance to multiple herbicides and methods of use thereof” (priority 2005, published 2008).

Tests used:
[1] = tested on: parent elite stiff stalk inbred corn; assay: Postemergence effect of ALS herbicides, glyphosate and glufosinate (fresh weight, visual injury); settings: 200 g/ha (glyphosate 3472 g ae/ha, glufosinate ammonium 1870 g/ha), mean of four replications; for % Visual Injury Parent elite stiff stalk inbred: 2 weeks after treatment, 0% no injury, 100% plant death; for Fresh Weight (g) Parent elite stiff stalk inbred: applied two weeks after planting, fresh shoots 2 weeks after treatment, untreated 76.4 g
[2] = tested on: heterozygous GAT-HRA corn; assay: as above; settings: 200 g/ha (glyphosate 3472 g ae/ha, glufosinate ammonium 1870 g/ha), mean of four replications; for % Visual Injury Heterozygous GAT-HRA: 2 weeks after treatment, 0% no injury, 100% plant death; for Fresh Weight (g) Heterozygous GAT-HRA: applied two weeks after planting, fresh shoots 2 weeks after treatment, untreated 98.8 g
[3] = tested on: heterozygous GAT-HRA corn; assay: Preemergence effect of ALS herbicides (fresh weight, visual injury); settings: 200 g/ha, mean of four replications; for % Visual Injury Heterozygous GAT-HRA: 4 weeks after treatment, 0% no injury, 100% plant death; for Fresh Weight (g) Heterozygous GAT-HRA: fresh shoots 4 weeks after treatment, untreated 47.0 g
[4] = tested on: GAT-HRA transgenic cotton plants; assay: Greenhouse over the top herbicide spray of cotton; type: in vivo, Gossypium hirsutum; settings: rimsulfuron 16 g active ingredient/hectare over the top after glyphosate 1.5 lb ae/acre; 14 days after rimsulfuron, 28 days after glyphosate
Source text: (§1) Transformed cotton plants were rooted and then transferred to soil for further growth. Plants were then subjected to herbicide spray treatments in a greenhouse. […] Untransformed Coker 312 control plants were dead 2 weeks after glyphosate application. […] Plants transformed with both GAT and HRA were further subjected to an “over the top” application of the sulfonylurea herbicide rimsulfuron at a rate of 16 g active ingredient/hectare. […] In further experiments 32 g ai/ha rimsulfuron were applied to the cotton.

[5] = tested on: untransformed Coker 312 cotton; assay: Greenhouse over the top herbicide spray of cotton; type: in vivo, Gossypium hirsutum; settings: rimsulfuron 16 g active ingredient/hectare, even in the absence of glyphosate
Source text: as §1

[6] = tested on: parent elite stiff stalk inbred corn; assay: Preemergence effect of ALS herbicides (fresh weight, visual injury); settings: 200 g/ha, mean of four replications; for % Visual Injury Patent elite stiff stalk inbred: 4 weeks after treatment, 0% no injury, 100% plant death; for Fresh Weight (g) patent elite stiff stalk inbred: fresh shoots 4 weeks after treatment, untreated 36.7 g
GAT-HRA maize = assay: Postemergence herbicide spray at V2, injury evaluated 10-14 days after application
Protocol: GAT-HRA maize plants were evaluated for tolerance to glyphosate and other herbicides. One protocol used in this evaluation was as follows. At the V2 stage (Ritchie and Hanway (1982), “How a corn plant develops” Spec. Rep. 48. (Coop. Ext. Ser., Iowa State Univ., Ames, Iowa)), plant heights were measured and herbicides were applied by spray application. Ten to fourteen days after the spray application, the transgenic plants were evaluated for injury symptoms and measured for plant height again in order to determine plant growth rates.
Plants were then evaluated at various times after treatment, such as 10 or 14 days after treatment. […] Leaf samples were taken from GAT-HRA plants and used in quantitative PCR analysis and other analyses to determine the number and arrangement of copies of the GAT and HRA polynucleotides that had been integrated into the plant genome.
Other protocols for evaluation included treatment with imidazolinone herbicides, such as the commercial herbicide Lightning® (a combination of imazapyr and imazethapyr), which was applied to GAT-HRA maize at the V2 leaf stage at four times the field label rate (250 g ai/ha). […] Another protocol for evaluation included treatment with imidazolinone herbicides as well as sulfonylurea and glyphosate herbicides. In these tests, GAT-HRA maize was treated with various combinations of Lightning® (imazapyr and imazethapyr), Basis® (rimsulfuron and thifensulfuron-methyl) and WeatherMAX® (glyphosate potassium salt). These herbicides were applied at the V2 stage as follows: Lightning® at twice the field label rate (1.8 oz ai/ac (133 ml ai/ha)), Basis® at twice the field label rate (0.5 oz ai/ac (36.9 ml ai/ha)) and WeatherMax® at four times the field label rate (43 oz ai/ac). Fourteen days after the treatment application, the plants were evaluated. […] “Field label rate” refers to the application rate specified on the product label. Where the application rate for a particular situation is a range of rates, as used herein, the term “field label rate” indicates the upper end of that range. […]

control maize = assay: as above; type: in vivo; settings: tribenuron, chlorimuron, imazapyr 200 g ai/ha, metsulfuron-methyl 0.5 oz ai/ac or 35 g ai/ha, 10-14 days after spray
[7] = tested on: non-transgenic control soybeans; assay: Postemergence greenhouse spray of soybeans, visual injury (Table 11); settings: tribenuron-methyl 35 g/ha
Protocol: Young regenerated transgenic plants were sprayed with 1× glyphosate (1× rate of glyphosate is 1120 g/ha of glyphosate isopropylamine) to cull segregants. Four replications were performed for each treatment. Plants were then treated with various herbicides, including glyphosate and ALS-inhibitor herbicides.
Six soybean seeds from each variety to be assayed were planted 1 cm deep in 5.5 (13.97 cm) inch square plastic container of a synthetic growth medium. […] When possible, containers were thinned to two uniform plants. Non-transgenic lines were thinned to two uniform plants per container.
Results are expressed below in Table 11 as the mean of four replications.

[8] = tested on: non-glyphosate resistant ryegrass (70-04); assay: Control of ryegrass by glyphosate, metsulfuron-methyl and two additives (Table 23); type: in vivo
Protocol: The example was conducted on non-glyphosate resistant ryegrass. As provided in Table 23, all treatments that included glyphosate [180 g a.i. L ha^−1 (0.5 L glyphosate (SCAT®))] plus metsulfuron-methyl (BRUSH-OFF®) (5 and 10 g ha^−1) gave 100% control of the ryegrass.
• Biotype: non-glyphosate resistant ryegrass (70-04) • Population profile: Rup 0.25 control (%) 6.25 • Rup 0.5 control (%) 81.25 • Rup 1.0 control (%) 93.75 • Growth Stage: 5-6 leaf stage • Conditions: hot and sunny • Volume rate: 200 L ha^−1

[9] = tested on: non-glyphosate resistant Conyza (Welgevallen-paraquat resistant); assay: Control of hairy fleabane by glyphosate, metsulfuron-methyl and two additives (Table 24); type: in vivo, Conyza bonariensis
Protocol: This example included the same treatments as used in Example 11, except the treatments were carried out on a glyphosate sensitive biotype of Kleinskraalhans (Conyza bonariensis).
• Biotype: Non-glyphosate resistant Conyza (Welgevallen-paraquat resistant) • Growth Stage: 10-15 leaf stage • Conditions: Cool and sunny • Volume rate: 200 L ha^−1 • glyphosate (ROUNDUP): 360 g a.i. L^−1

[10] = Trial 2: metsulfuron-methyl (BRUSH-OFF) 5 g/ha
[11] = Trial 3: metsulfuron-methyl (BRUSH-OFF) 10 g/ha

Structure (SMILES)	% Visual Injury Parent elite stiff stalk inbred [1] [%]	% Visual Injury Heterozygous GAT-HRA [2] [%]	% Visual Injury Heterozygous GAT-HRA [3] [%]	% Visual Injury Patent elite stiff stalk inbred [6] [%]	damage from the treatment, control maize (control maize)	other results
CCS(=O)(=O)c1cccnc1S(=O)(=O)NC(=O)Nc1nc(OC)cc(OC)n1 [Rimsulfuron, N-[[(4,6-dimethoxy-2-pyrimidinyl)amino]carbonyl]-3-(ethylsulfonyl)-2-pyridinesulfonamide]	91	10	0	74		transgenic plants with no deleterious symptoms from the dual herbicide application [4]: approximately 35%; damage of untransformed Coker 312 plants [5]: severe damage
CCOC(=O)c1ccccc1S(=O)(=O)NC(=O)Nc1nc(Cl)cc(OC)n1 [Chlorimuron-ethyl, ethyl 2-[[[[(4-chloro-6-methoxy-2-pyrimidinyl)amino]carbonyl]amino]sulfonyl]-benzoate]	93	15	10	100	severely damaged or killed	Fresh Weight (g) Parent elite stiff stalk inbred [1]: 10.1 g; Fresh Weight (g) Heterozygous GAT-HRA [2]: 95.5 g; damage from the treatment, GAT-HRA maize (GAT-HRA maize; postemergence spray at V2, tribenuron (Express), chlorimuron (Classic), imazapyr (Arsenal) 200 g ai/ha, metsulfuron-methyl (Ally) 0.5 oz ai/ac or 35 g ai/ha, 10-14 days after spray): no significant damage; Fresh Weight (g) Heterozygous GAT-HRA [3]: 39.4 g; Fresh Weight (g) patent elite stiff stalk inbred [6]: 9.3 g
COC(=O)c1ccccc1S(=O)(=O)NC(=O)Nc1nc(C)nc(OC)n1 [Metsulfuron-methyl, methyl 2-[[[[(4-methoxy-6-methyl-1,3,5-triazin-2-yl)amino]carbonyl]amino]sulfonyl]benzoate]	100	14	0	100	severely damaged or killed	damage from the treatment, GAT-HRA maize (GAT-HRA maize; in vivo): no significant damage
COC(=O)c1ccccc1S(=O)(=O)NC(=O)N(C)c1nc(C)nc(OC)n1 [Tribenuron-methyl, methyl 2-[[[[N-(4-methoxy-6-methyl-1,3,5-triazin-2-yl)-N-methylamino]carbonyl]-amino]sulfonyl]benzoate]	100	8	25	66		effect on non-transgenic control soybeans [7]: killed by the treatment
CC(C)C1(C)N=C(c2ncccc2C(=O)O)NC1=O (centres unmarked) [Imazapyr]	100	1	30	99	severely damaged or killed	damage from the treatment, GAT-HRA maize (GAT-HRA maize; in vivo): no significant damage
COC(=O)c1ccccc1CS(=O)(=O)NC(=O)Nc1nc(OC)cc(OC)n1 [Bensulfuron-methyl, methyl 2-[[[[[(4,6-dimethoxy-2-pyrimidinyl)amino]carbonyl]amino]sulfonyl]methyl]benzoate]	93	14	10	23		
COC(=O)c1ccccc1S(=O)(=O)NC(=O)Nc1nc(C)nc(OC)n1 [Metsulfuron-methyl (BRUSH-OFF ®)]						Control (%) [8, 10]: 0%; Control (%) [8, 11]: 0%; Control (%) [9, 10]: 100%; Control (%) [9, 11]: 100%
COc1nn(C(=O)NS(=O)(=O)c2ccccc2OC(F)(F)F)c(=O)n1C [Flucarbazone Na^+, 4,5-dihydro-3-methoxy-4-methyl-5-oxo-N-[[2-(trifluoromethoxy)phenyl]sulfonyl]-1H-1,2,4-triazole-1-carboxamide]	100	14	40	100		
CC(C)C1(C)N=C(c2nc3ccccc3cc2C(=O)O)NC1=O (centres unmarked) [Imazaquin]	100	2	28	99		Fresh Weight (g) Parent elite stiff stalk inbred [1]: 4.4 g; Fresh Weight (g) Heterozygous GAT-HRA [2]: 113.3 g; Fresh Weight (g) Heterozygous GAT-HRA [3]: 45.4 g; Fresh Weight (g) patent elite stiff stalk inbred [6]: 1.5 g
